For 7 compounds, IC50 results are on record in patent US10513521B2, “Compositions and methods for inhibiting BMP” (The Brigham and Women's Hospital, Inc., priority 2014, dated 2019).

For one assay, the target named is ALK6 (Homo sapiens, UniProt O00238). Nature of the assay: TR-FRET enzymatic ALK kinase assay, ALK6. In general terms: TR-FRET usually uses a lanthanide donor and a delayed reading to cut background.
The next assay addresses T1, ALK4 (Homo sapiens, UniProt P36896).
T1 sequence (P36896 24-505): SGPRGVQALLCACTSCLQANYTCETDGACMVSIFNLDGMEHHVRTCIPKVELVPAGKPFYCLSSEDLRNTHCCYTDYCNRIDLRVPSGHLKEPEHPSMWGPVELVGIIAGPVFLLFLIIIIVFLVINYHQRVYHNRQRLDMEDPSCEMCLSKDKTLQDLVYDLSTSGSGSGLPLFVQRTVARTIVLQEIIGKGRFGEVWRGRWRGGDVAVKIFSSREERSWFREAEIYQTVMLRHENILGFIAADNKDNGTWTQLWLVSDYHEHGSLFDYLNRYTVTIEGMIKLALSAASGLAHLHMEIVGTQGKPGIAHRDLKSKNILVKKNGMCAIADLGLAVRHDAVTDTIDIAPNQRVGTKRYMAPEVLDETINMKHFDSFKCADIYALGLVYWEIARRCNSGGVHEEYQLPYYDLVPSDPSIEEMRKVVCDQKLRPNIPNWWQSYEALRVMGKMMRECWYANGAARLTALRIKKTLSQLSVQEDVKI
Briefly: TR-FRET enzymatic ALK kinase assay, ALK4.

For assay [1], the target named is T2, ALK2 (Mus musculus, UniProt P37172).
T2 construct: The C2C12 cell line was selected for the measurement of ALK2 activity using BMP6 as the agonist; host or cells: C2C12
T2 sequence (P37172 21-509): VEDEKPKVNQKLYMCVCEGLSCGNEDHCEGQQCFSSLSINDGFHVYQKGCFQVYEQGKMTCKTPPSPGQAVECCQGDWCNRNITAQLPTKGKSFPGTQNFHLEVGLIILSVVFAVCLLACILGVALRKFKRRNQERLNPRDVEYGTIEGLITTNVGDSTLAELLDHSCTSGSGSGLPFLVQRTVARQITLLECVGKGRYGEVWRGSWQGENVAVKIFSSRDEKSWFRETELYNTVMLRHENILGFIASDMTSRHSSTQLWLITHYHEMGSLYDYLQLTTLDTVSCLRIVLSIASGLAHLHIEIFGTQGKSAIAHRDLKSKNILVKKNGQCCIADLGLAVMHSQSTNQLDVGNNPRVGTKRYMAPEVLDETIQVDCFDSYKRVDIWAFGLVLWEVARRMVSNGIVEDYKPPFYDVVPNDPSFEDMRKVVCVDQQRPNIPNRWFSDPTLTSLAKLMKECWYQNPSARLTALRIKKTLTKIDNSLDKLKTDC
Nature of the assay: HTRF pSMAD1 cell-based ALK2 assay (C2C12 cells, BMP6 as agonist). Summed up: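 Cells pre-starved, plated in 0.1% FBS medium for 4 h, compound added for 30 min, then stimulated 30 min with BMP9 (BAOEC) or BMP6 (C2C12). Phospho-SMAD1 measured by HTRF after overnight room-temperature detection incubation.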

For the next assay, the target named is T3, ALK5 (Homo sapiens, UniProt P36897).
T3 sequence (P36897 34-503): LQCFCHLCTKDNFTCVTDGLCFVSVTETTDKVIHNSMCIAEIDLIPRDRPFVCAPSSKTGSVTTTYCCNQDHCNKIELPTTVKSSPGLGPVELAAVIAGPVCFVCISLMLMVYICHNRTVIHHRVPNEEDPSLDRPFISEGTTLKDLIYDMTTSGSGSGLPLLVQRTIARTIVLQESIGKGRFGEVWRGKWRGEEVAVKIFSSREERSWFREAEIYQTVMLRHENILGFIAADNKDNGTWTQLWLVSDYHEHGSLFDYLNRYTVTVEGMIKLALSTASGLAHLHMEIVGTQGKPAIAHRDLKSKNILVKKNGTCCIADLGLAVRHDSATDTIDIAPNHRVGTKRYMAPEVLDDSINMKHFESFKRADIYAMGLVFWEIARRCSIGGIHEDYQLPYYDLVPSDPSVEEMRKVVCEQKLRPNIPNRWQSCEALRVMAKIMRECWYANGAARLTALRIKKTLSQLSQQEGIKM
Briefly: TR-FRET enzymatic ALK kinase assay, ALK5.

Assay [2] has as its target T4, ALK2 (Homo sapiens, UniProt Q04771).
T4 sequence (Q04771 21-509): T2 sequence (P37172 21-509) with V1M, Q10P, I121L, E162D, S310P
Briefly: TR-FRET enzymatic ALK kinase assay, ALK2.

The next assay has as its target ALK1 (Homo sapiens, UniProt P37023). Nature of the assay: TR-FRET enzymatic ALK kinase assay, ALK1.
In another assay the target is ALK3 (Homo sapiens, UniProt P36894). Briefly: TR-FRET enzymatic ALK kinase assay, ALK3.
Chain of ALK3 (P36894 24-532): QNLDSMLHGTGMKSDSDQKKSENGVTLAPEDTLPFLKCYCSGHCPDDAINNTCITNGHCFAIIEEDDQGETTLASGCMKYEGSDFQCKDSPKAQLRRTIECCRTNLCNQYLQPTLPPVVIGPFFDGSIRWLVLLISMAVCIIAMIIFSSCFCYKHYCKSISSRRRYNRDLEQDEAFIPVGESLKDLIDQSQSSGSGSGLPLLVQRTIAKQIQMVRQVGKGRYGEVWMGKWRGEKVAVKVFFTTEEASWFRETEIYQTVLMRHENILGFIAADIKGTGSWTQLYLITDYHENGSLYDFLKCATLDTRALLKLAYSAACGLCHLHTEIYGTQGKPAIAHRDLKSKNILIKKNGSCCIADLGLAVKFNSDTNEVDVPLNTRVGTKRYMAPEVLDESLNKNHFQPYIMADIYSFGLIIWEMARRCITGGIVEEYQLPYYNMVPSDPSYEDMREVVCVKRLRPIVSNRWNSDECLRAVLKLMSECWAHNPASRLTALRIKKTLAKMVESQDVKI
The mark [3] stands for this setting: cell-based assay, BMP6, read-out: Cell IC50 BMP6.

Residue numbers refer to the chain shown, from its start. Like-named read-outs stand apart in the source and are kept apart here.

Chain of ALK6 (O00238 14-502): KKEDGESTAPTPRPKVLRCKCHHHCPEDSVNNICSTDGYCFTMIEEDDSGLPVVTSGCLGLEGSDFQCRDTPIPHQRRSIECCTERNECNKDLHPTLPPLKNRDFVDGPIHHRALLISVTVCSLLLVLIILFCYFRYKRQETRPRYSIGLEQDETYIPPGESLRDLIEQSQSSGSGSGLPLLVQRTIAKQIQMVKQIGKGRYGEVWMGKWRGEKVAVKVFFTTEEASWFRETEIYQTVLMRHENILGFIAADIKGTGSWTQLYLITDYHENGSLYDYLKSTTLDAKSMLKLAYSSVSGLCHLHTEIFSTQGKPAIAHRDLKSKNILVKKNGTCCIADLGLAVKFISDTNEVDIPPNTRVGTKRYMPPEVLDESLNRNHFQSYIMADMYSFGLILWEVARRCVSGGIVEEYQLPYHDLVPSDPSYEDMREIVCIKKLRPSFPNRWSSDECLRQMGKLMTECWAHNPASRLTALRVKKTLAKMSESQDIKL
Chain of ALK1 (P37023 22-503): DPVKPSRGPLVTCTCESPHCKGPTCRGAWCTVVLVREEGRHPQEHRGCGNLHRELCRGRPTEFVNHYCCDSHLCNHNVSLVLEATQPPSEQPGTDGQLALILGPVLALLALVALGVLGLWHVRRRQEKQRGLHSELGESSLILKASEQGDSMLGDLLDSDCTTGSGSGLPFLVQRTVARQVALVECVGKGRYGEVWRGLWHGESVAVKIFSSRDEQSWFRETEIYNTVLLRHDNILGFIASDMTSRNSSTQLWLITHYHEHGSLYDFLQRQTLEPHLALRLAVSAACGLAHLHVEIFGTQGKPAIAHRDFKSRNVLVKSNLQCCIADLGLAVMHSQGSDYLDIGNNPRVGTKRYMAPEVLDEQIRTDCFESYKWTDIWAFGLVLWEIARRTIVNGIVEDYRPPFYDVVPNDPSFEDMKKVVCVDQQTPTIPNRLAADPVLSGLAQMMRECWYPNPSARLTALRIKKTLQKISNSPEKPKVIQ

For `C[C@@H]1CNC[C@H](C)N1c1ccc(-c2cnc3c(-c4cc(N)cc5ccccc45)cnn3c2)cc1` [Compound 58, 4-(6-(4-((2R,6S)-2,6-dimethylpiperazin-1-yl)phenyl)pyrazolo[1,5-a]pyrimidin-3-yl)naphthalen-2-amine], the IC50 against ALK6 is 0.95 µM; at ALK4, 6.1 µM; on ALK2 [1] (setting [3]), 0.09 µM; on ALK5, greater than 10 µM; on ALK2 [2] it was 0.036 µM; against ALK1, 0.073 µM. For the same compound, the IC50 against ALK3 amounted to 0.37 µM.

As to `Cc1ccc(-c2cnn3cc(-c4ccc(N5[C@H](C)CNC[C@@H]5C)cc4)cnc23)cc1S(N)(=O)=O` [Compound 55, 5-(6-(4-((2R,6S)-2,6-dimethylpiperazin-1-yl)phenyl)pyrazolo[1,5-a]pyrimidin-3-yl)-2-methylbenzenesulfonamide], the IC50 was greater than 10 µM at ALK6; greater than 10 µM on ALK4; 4.73 µM on ALK2 [1] (setting [3]); greater than 10 µM on ALK5; 0.19 µM against ALK2 [2]; 0.8 µM on ALK1. Besides, the IC50 at ALK3 was greater than 10 µM.

Turning to `NS(=O)(=O)c1ccc(-c2cnn3cc(-c4ccc(C5(O)CCNCC5)cc4)cnc23)c2ccccc12` [Compound 66, 4-(6-(4-(4-hydroxypiperidin-4-yl)phenyl)pyrazolo[1,5-a]pyrimidin-3-yl)naphthalene-1-sulfonamide], the IC50 on ALK6 was greater than 10 µM; on ALK4, greater than 10 µM; on ALK2 [1] (setting [3]), 10 µM; against ALK5, greater than 10 µM; against ALK2 [2], 0.068 µM; on ALK1, 0.18 µM. This compound also displayed an IC50 on ALK3 greater than 10 µM.

`C[C@@H]1CNC[C@H](C)N1c1ccc(-c2cnc3c(-c4ccc(S(=O)(=O)C(F)(F)F)cc4)cnn3c2)cc1` [Compound 45, 6-(4-((2R,6S)-2,6-dimethylpiperazin-1-yl)phenyl)-3-(4-((trifluoromethyl)sulfonyl)phenyl)pyrazolo[1,5-a]pyrimidine]: the IC50 at ALK6 is greater than 10 µM; against ALK4 it was greater than 10 µM; at ALK2 [1] (setting [3]), 9.16 µM; against ALK5, greater than 10 µM; against ALK2 [2] it was greater than 10 µM; against ALK1 it was greater than 10 µM. This compound also yielded an IC50 on ALK3 greater than 10 µM.

Take `CS(=O)(=O)c1cccc(-c2cnn3cc(-c4ccc(OC5(CN6CCCCC6)CC5)cc4)cnc23)c1` [Compound 134, 3-(3-(methylsulfonyl)phenyl)-6-(4-(1-(piperidin-1-ylmethyl)cyclopropoxy)phenyl)pyrazolo[1,5-a]pyrimidine]: the IC50 on ALK6 was greater than 10 µM; against ALK4, greater than 10 µM; on ALK2 [1] (HTRF assay, BMP6 as agonist, C2C12 cells, read-out: BMP6 HTRF), 0.27 µM; against ALK5, greater than 10 µM; against ALK2 [2], 0.045 µM; against ALK1, 0.27 µM. This compound also came in with an IC50 against ALK3 of 1.4 µM.

Take `NS(=O)(=O)c1ccc(-c2cnn3cc(-c4ccc(C5(O)CCNCC5)nc4)cnc23)c2ccccc12` [Compound 56, 4-(6-(6-(4-hydroxypiperidin-4-yl)pyridin-3-yl)pyrazolo[1,5-a]pyrimidin-3-yl)naphthalene-1-sulfonamide]: the IC50 on ALK6 was greater than 10 µM; against ALK4 it was greater than 10 µM; on ALK2 [1] (setting [3]), 60 µM; against ALK5, greater than 10 µM; against ALK2 [2], 0.35 µM; against ALK1, 0.9 µM. This compound had an IC50 against ALK3 greater than 10 µM.

`O=[S+]([O-])(c1cccc(-c2cnn3cc(-c4ccc(CN5CCCCC5)cc4)cnc23)c1)C1CC1` [Compound 125, 3-(3-(cyclopropylsulfonyl)phenyl)-6-(4-(piperidin-1-ylmethyl)phenyl)pyrazolo[1,5-a]pyrimidine]: the IC50 against ALK6 was 8.4 µM; against ALK4 it was greater than 10 µM; at ALK2 [1] (setting [3]) it was less than 0.001 µM; against ALK5 it was greater than 10 µM; against ALK2 [2], 0.066 µM; on ALK1, 0.43 µM. Also, the IC50 against ALK3 was greater than 10 µM.
